Read-outs that look alike come from different tables or passages of the source.
What was measured:
diet-induced MetS model [1] = system: diet-induced MetS model; set-up: method as in PMID 34577613; conditions: in vivo diet-induced MetS model, previous study ref 38; cited from earlier work
diet-induced MetS model [2] = assay: In vivo diet-induced (high-fructose high-fat) MetS model; set-up: species or system Sprague–Dawley male rats; conditions: MetS rats, 10 mg/kg p.o. for 14 days, vs untreated group; for effect on glucose levels / effect on total cholesterol levels / effect on triglyceride levels / effect on body weight: HFHF diet; for effect on glucose levels / effect on total cholesterol levels / effect on triglyceride levels: serum; for effect on triglycerides and glucose (TyG) index: TyG = Ln(triglyceride x glucose/2)
Procedure: In the diet-induced model, MetS was generated through 12 weeks of the consumption of a high-fructose high-fat (HFHF) diet per the previous experience in our group. The control group received a standard diet during the same period. After this induction phase, the animals of the standard diet were randomly allocated into two groups; one group (C/treated groups) would receive treatment with compounds 2, 3, or 4 for 14 days (10 mg/kg, p.o.), and the other group would receive no treatment (C groups). The same allocation was made for the diet-induced MetS group (the MetS group received no treatment, while MetS/treated groups received compound 2, 3, or 4, 10 mg/kg, p.o. for 14 days), as depicted in Figure 4.
For the in vivo experimentation, eighty Sprague–Dawley male rats weighing 250 ± 25 g were housed in acrylic boxes and treated following the recommendations and requirements of the NOM-062-ZOO-1999 (Official Mexican Standard for the Production, Care, and Use of Laboratory Animals). They were kept in a clear-air room maintained on an artificial 12 h light/dark cycle and were given ad libitum access to food and water. The protocol was approved by the Institutional Subcommittee for the Care and Use of Laboratory Animals (SICUAL) with the registration number FMM/SICUAL/006/2017 (date of approval, 30 August 2017).
The animals were randomly allocated to a group (control groups) that was fed on a regular Chow commercial diet (Purina-Rodent Laboratory Chow-5001 3.310 kcal/g) or to a group (MetS groups) that was supplied with a high-fructose and high-fat diet (4.161 kcal/g) for the generation of MetS. From our own experience, MetS is established after twelve weeks with this diet. The weight of each animal was recorded at the beginning of the study and every week after the completion of the induction period. In weeks nine and twelve, the glucose, total cholesterol, and triglyceride levels were monitored in fasting conditions of 12 h, using an Accutrend plus monitor (Roche). Following the MetS induction phase, the control and MetS groups were rearranged into the following groups: (1) control (CM, regular diet + no treatment n = 10); (2) MetS (HFHF diet + no treatment, n = 10); (3) control + compound 2 (C/2 regular diet + treatment with 2, n = 10); (4) MetS + compound 2 (MetS/2, HFHF diet + treatment with 2, n = 10); (5) control + compound 3 (C/3, regular diet + treatment with […], n = 10); (6) MetS + compound 3 (MetS/3, HFHF diet + treatment with 3, n = 10); (7) control + compound 4 (C/4, regular diet + treatment with 4, n = 10); (8) MetS + compound 4 (MetS/4, HFHF diet + treatment with 4, n = 10). The treatment stage lasted 14 days, and the animals retained the same diet they had during the induction to exclude the effect of diet change. All the animals received 100 μL of a 1% Kolliphor EL mixture in water with or without the tested compound (10 mg/Kg) via nasogastric. Animals were sacrificed by decapitation. The blood was collected and centrifuged at 1372× g for 15 min at 4 °C. The serum was gathered and stored at −80 °C until the determination of metabolic parameters.
The animals’ serum was defrosted, and triacylglyceride, cholesterol, and glucose levels were determined on an Architect c8000 system (Abbott, Wiesbaden, Germany). Statistical analysis was performed using one-way ANOVA, followed by Dunnett’s multiple comparisons tests employing GraphPad Prism version 9.4.1 (GraphPad Software, La Jolla, CA, USA). Differences were considered significant when p ≤ 0.05.

HMG-CoA reductase [3] = target: T1, HMG-CoA reductase (Homo sapiens, UniProt P04035); assay: In vitro HMG-CoA reductase inhibition (HMG-CoA Reductase Assay Kit, Sigma-Aldrich CS1090); assay type: biochemical; conditions: for inhibition at 20 µM: initial screening, read-out: inhibition of HMG-CoA reductase enzymatic activity
T1 construct: purchased Sigma-Aldrich CS1090
T1 sequence (P04035 426-888 limits assumed): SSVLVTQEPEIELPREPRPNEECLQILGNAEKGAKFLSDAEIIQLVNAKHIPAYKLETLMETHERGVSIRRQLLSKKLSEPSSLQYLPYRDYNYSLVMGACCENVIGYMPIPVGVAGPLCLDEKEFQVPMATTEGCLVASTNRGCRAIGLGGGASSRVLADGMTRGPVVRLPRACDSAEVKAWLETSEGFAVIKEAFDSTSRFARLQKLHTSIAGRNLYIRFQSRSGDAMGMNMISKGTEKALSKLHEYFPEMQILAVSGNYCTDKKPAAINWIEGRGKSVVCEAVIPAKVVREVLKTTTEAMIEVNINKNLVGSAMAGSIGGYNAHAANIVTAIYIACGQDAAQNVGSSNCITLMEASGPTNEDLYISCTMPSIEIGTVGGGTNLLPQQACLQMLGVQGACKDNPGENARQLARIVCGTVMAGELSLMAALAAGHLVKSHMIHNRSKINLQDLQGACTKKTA
Procedure: (§1) The HMG-CoA Reductase Assay Kit from Sigma-Aldrich (catalog number CS1090, St. Louis, MO, USA) was used to determine the inhibitory properties of compounds 3 and 4 over enzyme activity, using the instructions provided by the fabricant. […] For IC50 determination of compound 3, final concentrations of 2.5, 5.0, 10.0, and 20 μM were employed by triplicate. The Total Antioxidant Capacity Assay Kit from Sigma-Aldrich (catalog number MAK187, St. Louis, MO, USA) was used for the determination of in vitro antioxidant activity following the manufacturer’s instructions by triplicate.

[4] = Total antioxidant capacity, CUPRAC assay (Trolox equivalent antioxidant capacity); conditions: triplicate
Procedure: as §1

[5] = set-up: method as in PMID 20072920; conditions: CUPRAC; cited from earlier work
HMG-CoA reductase [6] = target: T1, HMG-CoA reductase; set-up: method as in earlier work; conditions: same commercial kit, ref 73 (Mendieta et al.); cited from earlier work

## COc1ccc(C(=O)Nc2ccc(NC(=O)c3ccc(OC)c(OC)c3)c(C(=O)NCc3ccc(C(F)(F)F)cc3)c2)cc1OC [Compound 1]
diet-induced MetS model [1]
  effect on blood pressure: diminished
  effect on glucose serum levels: diminished
  effect on total cholesterol serum levels: diminished

## COc1ccc(C(=O)Nc2ccccc2C(=O)NCc2ccc(C(F)(F)F)cc2)cc1OC [Compound 2]
diet-induced MetS model [2]
  effect on glucose levels: did not affect
  effect on total cholesterol levels: did not affect
  effect on triglyceride levels: did not affect
  effect on body weight: did not affect

## COc1ccc(C(=O)Nc2ccc(NC(=O)c3ccc(OC)c(OC)c3)c(C(=O)O)c2)cc1OC [Compound 3, 2,5-Bis(3,4-dimethoxybenzamido)benzoic Acid]
HMG-CoA reductase [3]
  inhibition at 20 µM: 94%
HMG-CoA reductase [3]; concentrations 2.5, 5.0, 10.0 and 20 μM, triplicate
  IC50: 8.89 ± 0.51 µM
diet-induced MetS model [2]
  effect on triglycerides and glucose (TyG) index: decrease
  effect on glucose levels: reduced
  effect on total cholesterol levels: reduced
  effect on triglyceride levels: reduced
  effect on body weight: reduced
[4]
  TEAC (Trolox equivalent antioxidant capacity): 1.01 ± 0.06

## COc1ccc(/C=C/C(=O)Nc2ccc(NC(=O)/C=C/c3ccc(OC)c(OC)c3)c(C(=O)NCc3ccc(C(F)(F)F)cc3)c2)cc1OC [Compound 4, (2E,2′E)-N,N′-(2-((4-(Trifluoromethyl)benzyl)carbamoyl)-1,4-phenylene)bis(3-(3,4-dimethoxyphenyl)acrylamide)]
HMG-CoA reductase [3]
  inhibition at 20 µM: 46%
diet-induced MetS model [2]
  effect on triglycerides and glucose (TyG) index: decrease
  effect on total cholesterol levels: not significant
  effect on body weight: not significant
other
  melting point: > 250 °C
[4]
  TEAC (Trolox equivalent antioxidant capacity): 1.33 ± 0.04

## O=C(O[C@@H]1Cc2c(O)cc(O)cc2O[C@@H]1c1ccc(O)c(O)c1)c1cc(O)c(O)c(O)c1 [epicatechin gallate]
[5]
  TEAC (Trolox equivalent antioxidant capacity): above 3.0

## COc1cc(/C=C/C(=O)O)ccc1O [ferulic acid]
[5]
  TEAC (Trolox equivalent antioxidant capacity): 1.20

## O=c1c(O)c(-c2ccc(O)c(O)c2)oc2cc(O)cc(O)c12 [quercetin]
[5]
  TEAC (Trolox equivalent antioxidant capacity): above 3.0

## C/C=C/c1cc(OC)c(OC)cc1OC [α-asarone]
HMG-CoA reductase [6]
  IC50: 5.86 µM

Reference: paper PMC9784827, “In Combo Studies for the Optimization of 5-Aminoanthranilic Acid Derivatives as Potential Multitarget Drugs for the Management of Metabolic Syndrome” (Pharmaceuticals, 2022)
